Measured values taken from patent US10894794B1, “Substituted [1,2,4]triazolo[4,3-a]pyrazines as antidiabetics” (King Abdulaziz University, priority 2019, dated 2021).
Marks after values point to notes of the source that are not given here.

Tests used:
[1] = tested on: overnight fasted diabetic mice; test: OGTT after multiple doses (6 consecutive days); format: in vivo; conditions: for AUC in OGTT, % change from diabetic control / AUC in OGTT, Δ from diabetic control / Relative potency to sitagliptin (OGTT AUC) / AUC in OGTT, X (arithmetic mean): 50 mg/kg oral for six days; for AUC in OGTT, X (arithmetic mean): 2 h before glucose loading, AUC 0-120 min; for relative potency in OGTT compared with sitagliptin (in words): 6 consecutive days, 50 mg/kg
Experimental: The tested compounds were given daily by oral gavage for 6 consecutive days. On day 6, the overnight fasted diabetic mice were pretreated with the 6th oral dose of the tested compounds. Then an oral glucose was loaded (2 g/kg/10 ml b.w.) 2 h after drug treatment. Blood glucose levels were determined using the Accu-check Go® (Roche Diagnostics, Michigan, USA). Samples were collected just before drug administration (Fasting Blood glucose), then 2 h after drug treatment and before glucose administration. Sample collection was continued at 20, 40, 60 and 120 min intervals after glucose loading.
• b. Group 1: Animals of this group are 14 h overnight-fasted normoglycemic mice received the vehicle (1% CMC-Na) at a dosing volume of 10 ml/kg/day for six consecutive days. • c. Group 2: Overnight-fasted diabetic mice received the vehicle (1% CMC-Na) at a dosing volume of 10 ml/kg/day for six consecutive days and served as a negative control. • d. Group 3: Overnight-fasted diabetic mice received sitagliptin at a dose of 50 mg/kg/day for six consecutive days and served as positive control. • e. Groups 4-17: Animals in these groups were overnight-fasted diabetic mice and received the tested compounds 128, 129, 130, 131, at a dose of 50 mg/kg/day for six consecutive days (volume of 10 ml/kg). Effect on Blood Glucose Level after Introduction of Food for One Hour (≈Meal Tolerance Test) Rational of the Test

[2] = tested on: 14 h overnight-fasted diabetic mice; test: Blood glucose after introduction of food for one hour (meal tolerance test); format: in vivo; conditions: for antihyperglycemic activity after introduction of food (blood glucose rise and total AUC(0-180), in words): 50 mg/kg, 3 h before introduction of food; for Area under the curve AUC(0-180) after meal feeding: Day 1, 50 mg/kg oral, 3 hr pretreated
Experimental: The rational of this test was to determine the ability of the tested compounds to modulate glucose utilization after the introduction of food, after 3 h of drug administration to 14 h overnight-fasted mice (feeding with normal diet was done for 1 hr only, then food was removed during the remaining time of the test). This model is analogous to oral glucose tolerance tests (OGTT) used clinically to evaluate glycemic control, except that the meal was composed of fats, proteins and carbohydrates, and thus was a more realistic representation of the nutritional makeup of normal food. The main purpose is that during meal digestion, food contents e.g. carbohydrates, proteins and fats, were reported to cause an increase in the production of the GLP-I from the L-cells in ileum and colon. The produced GLP-I goes into circulation directly and affects insulin secretion from pancreatic β-cells. Both the GPL-I and insulin levels are expected to be high especially in the presence of a […] inhibitor.
Animals were Distributed Between 17 Groups (n=6) as Follows: • a. Group 1. Animals of this group were overnight-fasted normoglycemic mice and received the vehicle (1% CMC-Na) at a volume of 10 ml/kg/day for 4 consecutive days. • b. Group 2: overnight-fasted diabetic mice received the vehicle (1% CMC-Na) at a volume of 10 ml/kg/day for 4 consecutive days and served as a negative control. • c. Group 3: overnight fasted diabetic mice received sitagliptin at a dose of 50 mg/kg/day for 4 consecutive days in 1% CMC (in a volume of 10 ml/kg) and served as positive control. • d. Groups 4-19: Animals of these groups were overnight-fasted diabetic mice and received the tested compounds 128, 129, 130, 131,140, 142 at a dose of 50 mg/kg/day for 4 consecutive days in 1% CMC (volume of 10 ml/kg). Food was introduced for one hour only then food was removed immediately. Blood glucose levels were determined just before and 3 h after drug administration and then at 0, 60, 120 and 180 min after meal. Blood Sampling and Blood Glucose Determination
Blood samples were collected from the tail vein and the blood glucose level was determined. Curves of blood glucose levels (mg/dL) versus the time intervals (min) were constructed and the area under the curves (AUCs) were calculated by the method of calculation embedded in GraphPad Prism® v. 5.0 (GraphPad Software, San Diego, Calif., USA). AUCs of the curves of the different groups were compared and tested for significance against control groups.

DPP-IV enzyme = DPP-IV enzyme (Homo sapiens (Human), UniProt P27487); test: DPP-IV inhibition assay (Biovision kit, fluorescence); format: biochemical; conditions: read-out: IC50 (DPP4 inhibition)
Sequence of DPP-IV enzyme (P27487 whole entry, species assumed): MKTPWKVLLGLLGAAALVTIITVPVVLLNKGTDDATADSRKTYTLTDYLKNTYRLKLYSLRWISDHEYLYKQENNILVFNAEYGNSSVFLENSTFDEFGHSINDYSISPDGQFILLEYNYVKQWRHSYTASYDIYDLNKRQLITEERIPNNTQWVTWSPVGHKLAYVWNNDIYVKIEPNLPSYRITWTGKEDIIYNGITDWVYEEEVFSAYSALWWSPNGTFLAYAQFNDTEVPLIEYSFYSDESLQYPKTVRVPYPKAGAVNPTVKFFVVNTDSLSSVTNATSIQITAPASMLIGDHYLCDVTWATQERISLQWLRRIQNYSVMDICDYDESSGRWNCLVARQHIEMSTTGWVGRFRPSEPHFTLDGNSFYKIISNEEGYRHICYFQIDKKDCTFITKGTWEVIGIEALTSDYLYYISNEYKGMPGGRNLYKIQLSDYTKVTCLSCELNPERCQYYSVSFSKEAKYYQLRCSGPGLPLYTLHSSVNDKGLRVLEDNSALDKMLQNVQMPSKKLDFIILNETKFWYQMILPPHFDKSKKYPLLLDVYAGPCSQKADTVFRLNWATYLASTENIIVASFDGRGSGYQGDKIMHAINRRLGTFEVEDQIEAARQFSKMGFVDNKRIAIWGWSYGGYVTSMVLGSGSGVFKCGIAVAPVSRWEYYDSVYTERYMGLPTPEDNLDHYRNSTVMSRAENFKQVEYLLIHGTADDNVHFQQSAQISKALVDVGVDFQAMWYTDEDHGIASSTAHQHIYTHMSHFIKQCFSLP
Experimental: Sitagliptin phosphate monohydrate and the different tested compounds were dissolved in dimethyl sulphoxide (DMSO) and diluted with tris buffer (pH 8.0, 50 mM) to achieve the required concentrations. DPP-IV inhibition assay was conducted using a kit purchased from Biovision (Milpitas, Calif., USA). Briefly, DPP-IV enzyme was diluted with tris buffer and pipetted 50 μl into glass mini-cells. Subsequently the 25 μl of tris buffer, sitagliptin phosphate monohydrate or the tested compounds was added and incubated at 37° C. for 20 min protected from light. Finally, a volume of 25 μl of DPP-IV substrate was added into each tube. The fluorescence generated from hydrolysis of the substrate was read at Ex/Em=360/460 nm using Modulus® single tube multimode reader (Promega, USA). Baseline fluorescence was recorded before incubation (R1) and 20 min after incubation (R2). Percentage inhibition was calculated according to the following equation: […] where, ΔRFU=R2−R1 and EC is the enzyme control (enzyme solution without inhibitor) which is considered 100% activity.
The standard DPP-IV inhibitor drug sitagliptin was employed as positive control. […] Sigmoidal dose-response curves for DPP-IV % inhibition versus log concentrations were plotted using Graphpad prism software, version 5.00 (GraphPad Software, Inc. La Jolla, Calif., USA). The IC50 value corresponds to the concentration of sample needed to inhibit DPP-IV by 50%.

[3] = tested on: 14 h overnight fasted diabetic mice; test: Oral glucose tolerance test (OGTT) after single dose; format: in vivo; conditions: for glucose-lowering activity in OGTT compared with sitagliptin (in words): single dose 50 mg/kg; for Relative potency to sitagliptin (OGTT AUC) / AUC in OGTT, % change from diabetic control / AUC in OGTT, Δ from diabetic control / AUC in OGTT, X (arithmetic mean): single oral dose 50 mg/kg; for AUC in OGTT, % change from diabetic control / AUC in OGTT, Δ from diabetic control / AUC in OGTT, X (arithmetic mean): 2 h before glucose loading; for AUC in OGTT, X (arithmetic mean): AUC 0-120 min
Experimental: The oral glucose tolerance test was done in 14 h overnight fasted diabetic mice that were pretreated with a single oral dose of the tested compounds. Each of the tested agents was suspended in sodium carboxymethyl cellulose (CMC-Na) (1% in distilled water) and the dosing volume was adjusted to 10 ml/kg body weight per mouse. Then an oral glucose load was administered (2 g/kg) 2 h after drug treatment. Blood glucose levels were determined using the Accu-check Go® (Roche Diagnostics, Michigan, USA). Blood samples were collected just before drug administration (Fasting Blood glucose), then 2 h after drug treatment and before glucose loading. Blood samples collection was continued at 20, 40, 60 and 120 min intervals after glucose loading.
Animals were distributed between 17 groups (n=6) as follow: • a. Group 1: Animals were 14 h overnight-fasted normoglycemic mice and vehicle-treated (1% CMC-Na) at a dose of 10 ml/kg. • b. Group 2: Overnight fasted diabetic mice received the vehicle (1% CMC-Na) at a dosing volume of 10 ml/kg and served as a negative control. • c. Group 3: Overnight fasted diabetic mice received sitagliptin at a dose of 50 mg/kg in 1% CMC (in a volume of 10 ml/kg) and served as positive control. • a. Groups 4-17: Animals of these groups were overnight fasted diabetic mice received the tested compounds 128, 129, 130, 131, at a dose of 50 mg/kg in 1% CMC (volume of 10 ml/kg).

With C[C@H](NC(=O)c1cccc(Cl)c1)C(=O)N1CCn2c(nnc2C(F)(F)F)C1 [GLP-130] as the compound, how does the “AUC in OGTT, % change from diabetic control” value (from here on “AUC in OGTT, % change”) [1] read?
The value was −34.11%.

And the “AUC in OGTT, Δ from diabetic control” value [1]?
The value was -17983 mg·min/dL.

And the “Relative potency to sitagliptin (OGTT AUC)” value (shortened to “Relative potency … (OGTT AUC)”) [1]?
The value was 0.90.

And the “AUC in OGTT, X (arithmetic mean)” value [1]?
The value was 34672* mg · dL^−1 · min.

What about the “relative potency in OGTT compared with sitagliptin (in words)” value [1] of the same compound?
Its value is “comparable or higher relative potency than sitagliptin”.

And the “antihyperglycemic activity after introduction of food (blood glucose rise and total AUC(0-180), in words)” value [2]?
The value was “significant antihyperglycemic activity”.

And the “Area under the curve AUC(0-180) after meal feeding” value [2]?
Its value is 50478 ± mg · dL^−1 · min.

And the IC50 (DPP-IV enzyme)?
The IC50 was 210 pM.

And the “glucose-lowering activity in OGTT compared with sitagliptin (in words)” value [3]?
The value was “higher glucose-lowering activity than sitagliptin”.

And the “Relative potency … (OGTT AUC)” value [3]?
The value was 1.32.

What about the “AUC in OGTT, % change” value [3] of the same compound?
The value was −32.01%.

And the “AUC in OGTT, Δ from diabetic control” value [3]?
The value was -16345 mg·min/dL.

And the “AUC in OGTT, X (arithmetic mean)” value [3]?
Its value is 34720* mg · dL^−1 · min.

For O=C(CN1CCn2c(nnc2C(F)(F)F)C1)NC1CCCCC1 [GLP-140], which “AUC in OGTT, % change” value [1] is on record?
The value was −38.32%.

And the “AUC in OGTT, Δ from diabetic control” value [1]?
The value was -20180 mg·min/dL.

And the “Relative potency … (OGTT AUC)” value [1]?
Its value is 1.01.

And the “AUC in OGTT, X (arithmetic mean)” value [1]?
The value was 32475* mg · dL^−1 · min.

What about the “relative potency in OGTT compared with sitagliptin (in words)” value [1] of the same compound?
The value was “comparable or higher relative potency than sitagliptin”.

And the “antihyperglycemic activity after introduction of food (blood glucose rise and total AUC(0-180), in words)” value [2]?
Its value is “significant antihyperglycemic activity”.

And the “Area under the curve AUC(0-180) after meal feeding” value [2]?
The value was 72873 ± mg · dL^−1 · min.

And the IC50 (DPP-IV enzyme)?
The IC50 was 1840 pM.

And the “glucose-lowering activity in OGTT compared with sitagliptin (in words)” value [3]?
The value was “less potent than sitagliptin”.

And the “Relative potency … (OGTT AUC)” value [3]?
The value was 0.69.

And the “AUC in OGTT, % change” value [3]?
Its value is −16.89%.

And the “AUC in OGTT, Δ from diabetic control” value [3]?
The value was -8626 mg·min/dL.

And the “AUC in OGTT, X (arithmetic mean)” value [3]?
Its value is 42439 mg·min/dL.

Which results are given for N#Cc1cccc(NC(=O)CN2CCn3c(nnc3C(F)(F)F)C2)c1 [GLP-142]?
AUC in OGTT, % change from diabetic control [1]: −19.4%; AUC in OGTT, Δ from diabetic control [1]: -10216 mg·min/dL; Relative potency to sitagliptin (OGTT AUC) [1]: 0.513; AUC in OGTT, X (arithmetic mean) [1]: 42439* mg · dL^−1 · min; antihyperglycemic activity after introduction of food (blood glucose rise and total AUC(0-180), in words) [2]: significant antihyperglycemic activity; IC50 (DPP-IV enzyme): 180 pM; glucose-lowering activity in OGTT compared with sitagliptin (in words) [3]: less potent than sitagliptin; Relative potency to sitagliptin (OGTT AUC) [3]: 0.76; AUC in OGTT, % change from diabetic control [3]: −18.51%; AUC in OGTT, Δ from diabetic control [3]: -9452 mg·min/dL; AUC in OGTT, X (arithmetic mean) [3]: 41613 mg·min/dL
